Counter-ions that a name gives are not always drawn.
How the values were obtained:
[1] = Redissolution in water of evaporated salt residue, pH and taste; type: physicochemical
Procedure: The meglumine salt of ibuprofen was formed by dissolving 10 grams of Ibuprofen, USP, in 330 milliliters of Alcohol, USP to which was added 10 grams of Meglumine, USP. The ibuprofen-meglumine molar ratio was 1:1.0566.

[2] = in alcohol; cited from earlier work

ibuprofen concentration of clear solution as the meglumine salt ([1]; 740 milligrams of residue in 7.5 milliliters of water, 200 mg/5ml)	pH of salt solution ([1]; approximately 4% w/v ibuprofen in water)	SMILES	meglumine alcohol solubility limit [2]
approximately 4 % w/v	8.35	CC(C)Cc1ccc(C(C)C(=O)O)cc1 (stereo not drawn) [meglumine ibuprofen salt]	
		CNC[C@H](O)[C@@H](O)[C@H](O)[C@H](O)CO [meglumine, Meglumine]	1.2 grams in 100 ml
